{"source": "patent US20170246137A1", "about": "“SULFESTROL FOR TREATING CANCER” (CHAMAELEO PHARMA BVBA, priority 2012, published 2017)", "key": {"[1]": {"tested_on": "MDA-MB-231", "assay": "In vitro direct cytotoxicity, Cell titer Blue viability, 72 hrs", "method": "(§1) Cells were maintained in vitro in RPMI 1640 containing 10% (v/v) heat inactivated FBS and 2 mM L-glutamine (growth media) at 37° C. in 5% CO2 and humidified conditions. Cells were harvested, washed, resuspended into growth medium and counted. The cells were re-suspended into assay media (RPMI 1640+1% (v/v) heat inactivated FBS+ and 2 mM L-glutamine) at 0.5-1×10^5 cells/ml (dependent upon cell type) and plated into 96-well assay plates (Corning, black-wall plates) in 50 ul/well aliquots.\n(§2) Plates were incubated overnight at 37° C. in 5% humidified CO2 prior to addition of the compounds. […] Stocks of all compounds were then serially diluted. Final concentrations to which cells were exposed were 300, 150, 75, 37.5, 18.75, 9.4, 4.7, 2.3, 1.2, 0.6 μM. Positive control was Cisplatin. Cisplatin was diluted in 1% FBS media to give a stock concentration of 1 mM. Cisplatin stock was then serially diluted. Final concentrations to which cells were exposed were 100, 50, 25, 12.5, 6.3, 3.1, 1.6, 0.8, 0.4, 0.2 μM.\n(§3) Plates were incubated for 72 hrs at 37° C. in 5% humidified CO2 after addition of the compounds. Viability of the cells was assessed with the Cell titer Blue™ (Promega) assay. 10 μl of Cell titer Blue™ reagents was added to each test/blank well. Plates were incubated 3 h at 37° C. in 5% humidified CO2 prior to analysis. Fluorescence was measured with a Flex II station plate reader. Excitation wavelength was 570 nm, emission wave length was 600 nm, cut off was 590 nm. Raw data was processed by GraphPad Prism to calculate mean, standard deviation and IC50 values."}, "[2]": {"tested_on": "MCF7", "assay": "In vitro direct cytotoxicity, Cell titer Blue viability, 72 hrs", "method": "as §1, §2, §3"}, "[3]": {"tested_on": "DU-145", "assay": "In vitro direct cytotoxicity, Cell titer Blue viability, 72 hrs", "assay_type": "cell-based", "method": "(§4) Cells were harvested, washed, re-suspended into growth medium and counted.\n(§5) Stocks of all compounds were then serially diluted. […] Positive control was Taxotere. Taxotere was diluted in 100% DSMO to give a stock concentration of 1 mM. Stock was serially diluted. Final concentrations to which cells were exposed were 1000, 333.3, 111.1, 37.0, 12.3, 4.1, 1.4, 0.5, and 0.2 nM."}, "[4]": {"tested_on": "LNCaP", "assay": "In vitro direct cytotoxicity, Cell titer Blue viability, 72 hrs", "assay_type": "cell-based", "method": "as §4, §5"}, "[5]": {"assay": "Concentration of Mono-Sulfestrol in pooled plasma samples, LC-UV quantification", "assay_type": "in vivo, male Sprague Dawley rats", "details": "10 mg/kg of the labelled compound, rat, pooled 0.5-8 hrs", "method": "The concentration of Mono-Sulfestrol in the pooled samples described in Example 6 was quantified by LC-UV quantification.\nA calibration standard solution was prepared as 10,000 ng/mL by adding an appropriate amount of Mono-Sulfestrol into 20% acetonitrile/0.1% formic acid in water. The peak area of the standard solution and the sample were measured with the wavelength set at 200 to 360 nm. The concentration levels of Mono-Sulfestrol were estimated using peak area (Area) of the standard and unknown samples and concentration of the standard (Concstd) by the following equation:\nAreaunknown/Areastd=Concunknown/Concstd\nConcunknown=Concstd·(Areaunknown/Areastd)"}, "[6]": {"assay": "Metabolites in plasma after oral and intravenous administration, LC-MS/MS", "procedure": "Metabolites were identified after oral and intravenous administration of the compounds.\nEach group consisted of three rats, giving a total of 12 animals. Compounds were dosed at 10 mg/kg for both oral and intravenous administration. A 0.9% saline solution was used as vehicle for oral and intravenous administration.\nPrior to intravenous administration, the solution was filtered through a 0.22 μM filter. Oral dosing was performed using a oral gavage. Tail vein injection was used for intravenous administration.\nAt 0.5, 1, 2, 4, 6 and 8 hrs post administration, 0.25 ml blood was drawn from the animals and immediately transferred to prechilled microcentrifuge tubes containing 4 μl of K2-EDTA to prevent coagulation. Plasma was obtained by centrifugation of the plasma and stored at −70° C. until analysis. Plasma drawn from each individual rat was pooled according to the following schedule:\nThe pooled samples were analyzed using LC-MS/MS and the relative percentage of each metabolite in the pooled sample was measured on the basis of the mass spectrometric peak areas of the parent and its metabolites in the plasma."}, "[7]": {"tested_on": "MDA-MB-231 Dlux", "assay": "Orthotopic spontaneous metastasis breast model, whole body bioluminescence", "assay_type": "in vivo, female MF-1 nude mice", "details": "for total flux, whole body bioluminescence: mono-Sulfestrol 60 mg/kg, di-Sulfestrol 80 mg/kg orally once a day", "method": "Female MF-1 nude mice (HsdOla:MF1-Foxn1nu, Harlan, UK) were divided into 3 groups of each 8 mice (n=8):\nThe mice were 5-6 weeks old at the start of the study and were maintained in sterile isolators within a barriered unit illuminated by fluorescent lights set to give a 12 hour light-dark cycle (on 07.00, off 19.00). The room was air-conditioned to maintain an air temperature range of 23±2° C. Sterile irradiated 2019 rodent diet (Harlan Teklad UK, product code Q219DJ1R2) and autoclaved water were offered ad libitum.\nThe MDA-MB-231 Dlux cells were maintained in vitro in RPMI containing 2 mM L-Glut and (Life Technologies, UK) and 10% (v/v) heat-inactivated foetal bovine serum (Sigma, Poole, UK) at 37° C. in 5% CO2 and humidified conditions. Cells were treated with Zeocin once a week at 0.4 mg/mL.\nOn the day of initiation cells were harvested from semi-confluent monolayers with 0.05% Trypsin-EDTA, washed twice in the culture medium and counted. Cells with viability of >90% were re-suspended, for in vivo administration, in 1:1 PBS:Matrigel at 2×10^6 cells/0.1 mL. Prior to injection, the cell suspension was homogenized and 0.1 mL of cell suspension was drawn into a 1 mL syringe. The cell suspension was then injected orthotopically into the lower left-side 2nd mammary fat pad of each mouse under anaesthesia (Medetomidine/Ketamine).\nOn day 7 after initiation and every six days thereafter, the mice were injected (s.c.) with 150 mg/kg D-Luciferin. 10 minutes following administration of D-Luciferin mice were anaesthetised and 15 minutes after administration they were placed into an imaging chamber (Spectrum CT) and imaged for luminescence (ventral view; whole body and shielding of the primary tumor). Images were captured and processed by Living Image 4.3.1 software (Caliper LS, US.).\nOn day 7 after initiation mice were assigned to groups such that there was a uniform mean bioluminescent signal between the groups."}}, "note": "pIC50: −log10 of the molar value. Where “and” joins values, the source holds several entries; their conditions need not be identical. Equal values may be shown once."}
{"substance": "4-(4-(4-oxidophenyl)hex-3-en-3-yl)phenyl sulfate [Mono-Sulfestrol]", "values": [{"measurement": "cytotoxicity in vitro (in words)", "setting": "[1]; MDA-MB231", "value": "cytotoxic"}, {"measurement": "pIC50", "setting": "[1]; read-out: IC50 value, MDA-MB-231, triple negative breast cancer cell line, 72 hrs", "value": 3.73}, {"measurement": "cytotoxicity in vitro (in words)", "setting": "[2]; MCF7", "value": "cytotoxic"}, {"measurement": "pIC50", "setting": "[2]; read-out: IC50 value, MCF7, hormone-dependent breast cancer cell line, 72 hrs", "value": 4.07}, {"measurement": "cytotoxicity in vitro (in words)", "setting": "[3]; DU-145", "value": "inactive"}, {"measurement": "IC50 value", "setting": "[3]; DU-145, hormone-independent prostate cancer cell line, 72 hrs", "value": "Not active"}, {"measurement": "cytotoxicity in vitro (in words)", "setting": "[4]", "value": "inactive"}, {"measurement": "IC50 value", "setting": "[4]; hormone-dependent prostate cancer cell line, 72 hrs", "value": "Not active"}, {"measurement": "Mono-Sulfestrol concentration in pooled plasma sample", "setting": "[5]; intravenous", "value": "630.0 ng/ml and 1.5 μM"}, {"measurement": "Mono-Sulfestrol concentration in pooled plasma sample", "setting": "[5]; oral", "value": "1150.6 ng/ml and 2.7 μM"}, {"measurement": "metabolic fate in rat plasma (in words)", "setting": "[6]; 10 mg/kg oral and intravenous", "value": "undergoes minimal metabolic processing"}, {"measurement": "Relative Abundance", "setting": "[6]; pooled rat plasma after Mono-Sulfestrol 10 mg/kg IV", "value": "IV: 86.99%"}, {"measurement": "Relative Abundance", "setting": "[6]; pooled rat plasma after Mono-Sulfestrol 10 mg/kg PO", "value": "PO: 91.91%"}, {"measurement": "total flux, whole body bioluminescence", "setting": "[7]; Day 7 (before start of treatment)", "value": "1.72 10^9 photons/second"}, {"measurement": "total flux, whole body bioluminescence", "setting": "[7]; Day 13", "value": "5.89 10^9 photons/second"}, {"measurement": "total flux, whole body bioluminescence", "setting": "[7]; Day 19", "value": "9.22 10^9 photons/second"}, {"measurement": "effect on tumor progression (in words)", "setting": "[7]; oral, MDA-MB-231 Dlux in mice", "value": "tumor progression inhibiting effect"}]}
